Measurements reported in article PMC8869507, “Gel-Forming of Self-Assembling Peptides Functionalized with Food Bioactive Motifs Modulate DPP-IV and ACE Inhibitory Activity in Human Intestinal Caco-2 Cells” (Biomedicines, 2022).
Read-outs that look alike come from different tables or passages of the source.

What was measured:
[1] = Atomic force microscopy (AFM) of peptide nanostructures; assay type: physicochemical; conditions: AFM tapping mode, 0.01% w/v in distilled water, sonicated 30 min, on mica
Method: AFM measurements were captured in tapping mode using a Tosca system (Anton Paar, Graz, Austria) using single-beam silicon cantilever probes. Peptides were dissolved in distilled water at a final concentration of 0.01% w/v and sonicated for 30 min, the same day as imaging. Then, 5 μL of peptide solution were deposited for 5 min on freshly cleaved mica, and distilled water was used to remove peptides loosely bound to the mica.

ACE [2] = system: ACE; set-up: method as in BIOPEP; conditions: from casein and soybean hydrolysates; ref BIOPEP; cited from earlier work
DPP-IV [3] = conditions: cited from earlier work; for DPP-IV activity in situ: human Caco-2 cells; for DPP-IV activity in situ / DPP-IV activity in vitro: ref [1]; for IC50: plain solutions, ref [4]
Source text: IAVPTGVA and LTFPGSAED (dubbed, respectively, Soy1 and Lup1) are two peptides derived from the hydrolysis of soybean glycinin and lupin β-conglutin, respectively. […] This difference was explained ...

HMGCoAR = conditions: in vitro; ref [1],[2],[3],[4]; cited from earlier work
Source text: (§1) IAVPTGVA and LTFPGSAED (dubbed, respectively, Soy1 and Lup1) are two peptides derived from the hydrolysis of soybean glycinin and lupin β-conglutin, respectively.

HepG2 cells = conditions: human HepG2 cells, ref [3],[5], cited from earlier work; for LDL uptake: LDL from the extracellular environment; for LDLR protein levels: through HMGCoAR inhibition
Source text: as §1

Caco-2 cells = conditions: cited from earlier work
DPP-IV and ACE = conditions: cited from earlier work; for concentration encapsulated needed for positive effect on DPP-IV and ACE: encapsulated in RADA16 hydrogel, previously reported by the authors, reference not given; for capability of inhibiting DPP-IV and ACE: non-covalently entrapped into RADA16, ref [10]
Source text: (§2) However, such food-derived peptides show low stability, bioavailability (due to their rapid degradation by active peptidases located on the intestinal microvilli), and a poor propensity to form functional biomaterials (i.e., hydrogels), thus precluding their practical applications.

proteases = conditions: cited from earlier work; for bioavailability / resistance towards proteases: non-covalent encapsulation in RADA16 hydrogel vs plain solutions, previously reported by the authors, reference not given; for stability: non-covalently entrapped into RADA16, ref [10]
Source text: as §2

ACE [4] = conditions: ACE activity expressed by Caco-2 cells, dose–response; no reference printed in the sentence (sentence before: ref [28]); cited from earlier work
Source text: This difference was explained ...

[5] = non-covalently entrapped in RADA16; previously reported by the authors, reference not given; cited from earlier work
DPP-IV [6] = test: In vitro DPP-IV activity assay; assay type: biochemical; conditions: IAVP up to 1 mg/mL (1, 10, 100, 500 and 1000 μg/mL), Tris-HCl pH 8.0, H-Gly-Pro-AMC, 37°, 30 min, fluorescence 350/465 nm, triplicate
Method: (§3) Peptide IAVP (1 mg/mL) was tested as previously described evaluating its DPP-IV and ACE inhibitory activity, respectively. For the evaluation of in vitro ACE inhibitory activity, a biochemical assay was used (further details are reported in supplementary materials).
(§4) Supplementary Materials for Gel‐forming of self‐assembling peptides functionalized with food bioactive motifs modulate DPP‐IV and ACE inhibitory ac‐ tivity in human intestinal Caco‐2 cells
(§5) Raffaele Pugliese1,*, Martina Bartolomei2, Carlotta Bollati2, Giovanna Boschin2, Anna Arnoldi2, and Carmen […]
(§6) In vitro evaluation of ACE inhibition activity. […]
(§7) The evaluation of the inhibition of ACE activity was based on the comparison between the concentrations of HA in the presence or absence of the inhibitor (Inhibitor Blank). The phenomenon of autolysis of HHL to give HA was evaluated by a reaction blank, i.e. a sample with the higher inhibitor concentration but without the enzyme. The percentage of ACE inhibition was calculated considering the area of the HA peak with the following formula: […] where AIB is the area of HA in the Inhibitor Blank (IB) sample (i.e., sample with enzyme but without inhibitor), AN is the area of HA in the samples containing different inhibitor amounts, and ARB is the area of HA in the Reaction Blank (RB) sample (i.e., sample without enzyme and with inhibitor at the highest concentration). […]

ACE [7] = test: In vitro evaluation of ACE inhibition activity (HHL substrate); assay type: biochemical, porcine kidney; conditions: 1 mg/mL; HHL 2.5 mM, pH 8.3, preincubation 15 min 37 °C, incubation 60 min 37 °C, HPLC of hippuric acid
Method: as §3, §4, §5, §6, §7

ACE [8] = system: ACE; set-up: method as in PMID 32223157; conditions: metabolite of Lup1; ref [28]; cited from earlier work
DPP-IV [9] = system: DPP-IV; set-up: method as in PMID 32223157; conditions: metabolite of Lup1; ref [28]; cited from earlier work
[10] = DPP-IV expressed by Caco-2 cells, read-out: IC50 cellular DPP-IV
[11] = purified enzymes, read-out: IC50 in vitro DPP-IV

## RADA16
[1]
  nanostructure morphology: self-assembles into long nanofibers

## AVP
ACE [2]
  known ACE inhibitor peptide: known ACE inhibitor peptides

## IAVPTGVA [Soy1, peptide derived from the hydrolysis of soybean glycinin]
DPP-IV [3]
  DPP-IV activity in situ: drop the in vitro and in situ human Caco-2 cells DPP-IV activity
  DPP-IV activity in vitro: drop the in vitro and in situ human Caco-2 cells DPP-IV activity
DPP-IV [3]; [10]
  IC50: 223 µM
DPP-IV [3]; [11]
  IC50: 106 µM
HMGCoAR
  HMGCoAR inhibition: act as in vitro HMGCoAR and DPP-IV inhibitors
HepG2 cells
  LDL uptake: improved the ability of hepatic cells to uptake LDL
  LDLR protein levels: upregulation of the LDLR protein levels
Caco-2 cells; Caco-2 trans-epithelial transport, ref [28],[29]
  transport across the intestinal barrier: able to across the intestinal barrier
Caco-2 cells; apical side of Caco-2 cells, trans-epithelial transport, ref [29]
  break-down fragments by intestinal peptidases: metabolized in three breakdown fragments (AVPTGVA, IAVP, and IAV)
Caco-2 cells; apical side of human intestinal Caco-2 cells, compared with Lup1, ref [28]
  susceptibility to metabolic activity of peptidase: more suitable for the metabolic activity of peptidase
DPP-IV and ACE
  concentration encapsulated needed for positive effect on DPP-IV and ACE: more than 100 μM
  capability of inhibiting DPP-IV and ACE: significantly improved as well as their capability of inhibiting DPP-IV and ACE
proteases
  bioavailability: higher bioavailability
  resistance towards proteases: higher resistance towards the proteases
  stability: significantly improved
ACE [4]
  IC50: 14.7 µM

## Ac-LTFPGSAEDGGGRADARADARADARADA-NH2 [fAP-Lup1, RADA16 functionalized at the N-terminus with Lup1 through a three-glycines spacer]
[1]
  nanostructure morphology: did not form nanofibers, but instead led to the formation of sparse round aggregates

## Ac-IAVPTGVAGGGRADARADARADARADA-NH2 [fAP-Soy1, RADA16 functionalized at the N-terminus with Soy1 through a three-glycines spacer]
[1]
  nanostructure morphology: short single nanofibers

## LTFPGSAED [Lup1, peptide derived from the hydrolysis of lupin β-conglutin]
DPP-IV [3]
  DPP-IV activity in situ: drop the in vitro and in situ human Caco-2 cells DPP-IV activity
  DPP-IV activity in vitro: drop the in vitro and in situ human Caco-2 cells DPP-IV activity
DPP-IV [3]; [10]
  IC50: 208 µM
DPP-IV [3]; [11]
  IC50: 228 µM
HMGCoAR
  HMGCoAR inhibition: act as in vitro HMGCoAR and DPP-IV inhibitors
HepG2 cells
  LDL uptake: improved the ability of hepatic cells to uptake LDL
  LDLR protein levels: upregulation of the LDLR protein levels
Caco-2 cells
  transport across the intestinal barrier: able to across the intestinal barrier
[5]
  release from RADA16 hydrogel: regularly delivered by the RADA16 hydrogel during the 360 min of controlled release tests
DPP-IV and ACE
  concentration encapsulated needed for positive effect on DPP-IV and ACE: more than 100 μM
  capability of inhibiting DPP-IV and ACE: significantly improved as well as their capability of inhibiting DPP-IV and ACE
proteases
  bioavailability: higher bioavailability
  resistance towards proteases: higher resistance towards the proteases
  stability: significantly improved
ACE [4]
  IC50: 13.7 µM

## IAVP [small peptide from degradation of Soy1]
DPP-IV [6]
  DPP-IV inhibitory activity: totally ineffective on DPP-IV
ACE [7]
  reduction of in vitro ACE activity: 20.1 ± 0.5%

## LTFPG [peptide cleaved from Lup1]
ACE [8]
  ACE inhibitory activity: maintains its ACE inhibitory activity
DPP-IV [9]
  DPP-IV inhibitory activity: losing that against DPP-IV
